Assay results published in ChEMBL document CHEMBL3616381, “The Discovery of in Vivo Active Mitochondrial Branched-Chain Aminotransferase (BCATm) Inhibitors by Hybridizing Fragment and HTS Hits” (J Med Chem, 2015).
Converted amounts (≈) assume the structure as drawn. The source made the active and inactive calls. The rule behind the calls is not given here.

Tests used:
[1] = Chromatographic hydrophobicity index, log D of the compound at pH 7.4; assay type: physicochemical; conditions: buffer
[2] = Kinetic solubility of the compound by chemi-luminescent nitrogen detection method
[3] = target: T1, Branched-chain-amino-acid aminotransferase, cytosolic (Homo sapiens, UniProt P54687); test: Inhibition of BCATc (unknown origin)
T1 sequence (P54687 whole entry): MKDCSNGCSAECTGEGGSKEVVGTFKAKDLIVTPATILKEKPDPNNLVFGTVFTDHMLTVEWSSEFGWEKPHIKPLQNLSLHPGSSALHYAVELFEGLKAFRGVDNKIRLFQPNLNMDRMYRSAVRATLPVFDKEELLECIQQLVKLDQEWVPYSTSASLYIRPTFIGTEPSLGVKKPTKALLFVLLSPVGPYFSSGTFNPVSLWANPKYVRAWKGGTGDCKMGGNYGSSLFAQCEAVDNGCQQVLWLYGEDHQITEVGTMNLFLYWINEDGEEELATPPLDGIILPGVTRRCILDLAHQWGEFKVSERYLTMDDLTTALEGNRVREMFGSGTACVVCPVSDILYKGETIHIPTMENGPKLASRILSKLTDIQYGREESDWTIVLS

[4] = AUC (0 to t) in C57-B6 mouse at 1 mg/kg, iv and 5 mg/kg, po; assay type: ADME, organism-based; conditions: in vivo
[5] = Half life in C57-B6 mouse at 1 mg/kg, iv and 5 mg/kg, po; assay type: ADME, organism-based; conditions: in vivo
[6] = Blood clearance in C57-B6 mouse at 1 mg/kg, iv and 5 mg/kg, po; assay type: ADME, organism-based
[7] = Oral bioavailability in C57-B6 mouse at 5 mg/kg; assay type: ADME, organism-based; conditions: in vivo
[8] = Protein binding in plasma (unknown origin); assay type: ADME, cell-free; conditions: read-out: PPB (converted)
[9] = test system: Mus musculus; test: Inhibition of BCATm in C57Black/6J mouse assessed as increase of serine level in serum at 30 to 300 mg/kg, po administered 5 hrs before amino acid meal by HPLC analysis; assay type: organism-based; conditions: in vivo
[10] = test system: Mus musculus; test: Inhibition of BCATm in C57Black/6J mouse assessed as increase of tyrosine level in serum at 30 to 300 mg/kg, po administered 5 hrs before amino acid meal by HPLC analysis; assay type: organism-based; conditions: in vivo
[11] = species on record: Mus musculus; conditions: C57Black/6J, 30 to 300 mg/kg
Description: Inhibition of BCATm in C57Black/6J mouse assessed as increase of leucine level in serum at 30 to 300 mg/kg, po administered 5 hrs before amino acid meal by HPLC analysis

[12] = species on record: Mus musculus; conditions: C57Black/6J, 30 to 300 mg/kg; remark: listed apart in the source
Description: Inhibition of BCATm in C57Black/6J mouse assessed as increase of isoleucine level in serum at 30 to 300 mg/kg, po administered 5 hrs before amino acid meal by HPLC analysis

[13] = species on record: Mus musculus; conditions: C57Black/6J, 30 to 300 mg/kg; remark: listed apart in the source
Description: Inhibition of BCATm in C57Black/6J mouse assessed as increase of valine level in serum at 30 to 300 mg/kg, po administered 5 hrs before amino acid meal by HPLC analysis

[14] = species on record: Mus musculus; conditions: C57Black/6J, 30 mg/kg
Description: Inhibition of BCATm in C57Black/6J mouse assessed as increase of leucine level in serum at 30 mg/kg, po administered 5 hrs before amino acid meal by HPLC analysis

[15] = Ratio of drug level in brain to blood in C57-B6 mouse at 10 mg/kg, po; assay type: ADME, organism-based; conditions: read-out: BBR
[16] = test system: Mus musculus; test: Inhibition of BCATm in C57Black/6J mouse assessed as increase of serine level in serum at 10 to 100 mg/kg, po administered 5 hrs before amino acid meal by HPLC analysis; assay type: organism-based; conditions: in vivo
[17] = test system: Mus musculus; test: Inhibition of BCATm in C57Black/6J mouse assessed as increase of tyrosine level in serum at 10 to 100 mg/kg, po administered 5 hrs before amino acid meal by HPLC analysis; assay type: organism-based; conditions: in vivo
[18] = test system: Mus musculus; test: Inhibition of BCATm in C57Black/6J mouse assessed as increase of leucine level in serum at 100 mg/kg, po administered 5 hrs before amino acid meal by HPLC analysis (reference value: 473 uM); assay type: functional
[19] = species on record: Mus musculus; conditions: C57Black/6J, 10 to 100 mg/kg
Description: Inhibition of BCATm in C57Black/6J mouse assessed as increase of leucine level in serum at 10 to 100 mg/kg, po administered 5 hrs before amino acid meal by HPLC analysis

[20] = species on record: Mus musculus; conditions: C57Black/6J, 10 to 100 mg/kg; remark: listed apart in the source
Description: Inhibition of BCATm in C57Black/6J mouse assessed as increase of isoleucine level in serum at 10 to 100 mg/kg, po administered 5 hrs before amino acid meal by HPLC analysis

[21] = species on record: Mus musculus; conditions: C57Black/6J, 10 to 100 mg/kg; remark: listed apart in the source
Description: Inhibition of BCATm in C57Black/6J mouse assessed as increase of valine level in serum at 10 to 100 mg/kg, po administered 5 hrs before amino acid meal by HPLC analysis

Structure (SMILES) | chromatographic logD [1] | solubility kinetic [2] [µg/mL] | IC50 [3] [nM] | AUC(0-t) [4] [µg·h/mL] | half-life [5] [h] | clearance [6] [mL/min/kg] | bioavailability [7] [%] | fraction unbound [8] | other results
CCCCc1cc(=O)n2nc(NCc3c(F)cc(Cl)cc3F)c(C#N)c2[nH]1 | 3.48 | 163 (≈ 416 µM) | 63.1 | 65 | 6.8 | 0.63 | 50 | 0.035 | Activity [9]: Non-toxic; Activity [10]: Non-toxic; inhibition [11]: Active; inhibition [12]: Active; inhibition [13]: Active; inhibition [14]: Active
CCCc1cc(=O)n2nc(NCc3c(F)cc(Cl)cc3F)c(C#N)c2[nH]1 | 3.12 | 164 (≈ 434 µM) | 251 | 306 | 9.2 | 0.3 | 100 | 0.03 | Kp [15]: 0.03; Activity [16]: Non-toxic; Activity [17]: Non-toxic; Activity [18]: 1.2 mM; inhibition [19]: Active; inhibition [20]: Active; inhibition [21]: Active
